In ChEMBL document CHEMBL1147532, “The design, preparation and SAR of novel small molecule sodium (Na(+)) channel blockers” (Bioorg Med Chem Lett, 2004):

Legend:
CYP3A4 = CYP3A4 (Homo sapiens, UniProt P08684); assay: Inhibition of cytochrome P450 3A4 was determined at 2 uM
CYP2D6 [1] = target: T1, CYP2D6 (Homo sapiens, UniProt P10635); assay: (§1) Inhibition of cytochrome P450 2D6 at 2 uM
Cytochrome P450 2D6 = Cytochrome P450 2D6 (Homo sapiens, UniProt P10635); assay: Predictive competitive inhibition of cytochrome P450 2D6 was determined in silico
Cytochrome P450 2D6, sequence (P10635 whole entry): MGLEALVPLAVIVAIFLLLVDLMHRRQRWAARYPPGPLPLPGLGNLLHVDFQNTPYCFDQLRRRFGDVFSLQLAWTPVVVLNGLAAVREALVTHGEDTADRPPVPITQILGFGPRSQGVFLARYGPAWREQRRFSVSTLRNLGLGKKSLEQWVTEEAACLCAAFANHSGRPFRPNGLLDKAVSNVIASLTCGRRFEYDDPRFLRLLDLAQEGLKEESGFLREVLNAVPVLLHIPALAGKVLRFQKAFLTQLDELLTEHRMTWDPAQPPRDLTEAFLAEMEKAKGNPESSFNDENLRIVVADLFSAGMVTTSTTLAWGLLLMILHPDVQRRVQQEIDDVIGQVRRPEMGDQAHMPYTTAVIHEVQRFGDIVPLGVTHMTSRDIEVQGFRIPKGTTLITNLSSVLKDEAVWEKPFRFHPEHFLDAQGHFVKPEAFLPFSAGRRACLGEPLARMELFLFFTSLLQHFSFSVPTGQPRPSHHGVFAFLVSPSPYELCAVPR

[2] = target: T2, Sodium channel alpha subunits; brain (Types I, II, III) (Rattus norvegicus, UniProt P04775+P04774+P08104); assay: In vitro inhibition of [3H]batrachotoxin binding to neurotoxin site 2 of sodium (Na+) channel in rat cerebral cortex membrane; type: cell membranes
Rattus norvegicus [3] = species on record: Rattus norvegicus; assay: Inhibition of tetrodotoxin (TTX) resistant current by the compound was determined at 10 uM using whole-cell patch clamp tests in cultured rat dorsal root ganglion (DRG); type: functional
Rattus norvegicus [4] = species on record: Rattus norvegicus; assay: Inhibition of tetrodotoxin (TTX) sensitive current by the compound was determined at 10 uM using whole-cell patch clamp tests in cultured rat dorsal root ganglion (DRG); type: functional
[5] = target: T2, Sodium channel alpha subunits; brain (Types I, II, III); assay: Inhibitory concentration against [3H]batrachotoxin binding to neurotoxin site 2 of sodium (Na+) channel in vitro in rat cerebral cortex membrane at 1 uM; type: cell membranes
CYP2D6 [6] = target: T1, CYP2D6; assay: as §1; type: ADME

T1 sequence (P10635 whole entry): as above
CYP3A4, sequence (P08684 whole entry): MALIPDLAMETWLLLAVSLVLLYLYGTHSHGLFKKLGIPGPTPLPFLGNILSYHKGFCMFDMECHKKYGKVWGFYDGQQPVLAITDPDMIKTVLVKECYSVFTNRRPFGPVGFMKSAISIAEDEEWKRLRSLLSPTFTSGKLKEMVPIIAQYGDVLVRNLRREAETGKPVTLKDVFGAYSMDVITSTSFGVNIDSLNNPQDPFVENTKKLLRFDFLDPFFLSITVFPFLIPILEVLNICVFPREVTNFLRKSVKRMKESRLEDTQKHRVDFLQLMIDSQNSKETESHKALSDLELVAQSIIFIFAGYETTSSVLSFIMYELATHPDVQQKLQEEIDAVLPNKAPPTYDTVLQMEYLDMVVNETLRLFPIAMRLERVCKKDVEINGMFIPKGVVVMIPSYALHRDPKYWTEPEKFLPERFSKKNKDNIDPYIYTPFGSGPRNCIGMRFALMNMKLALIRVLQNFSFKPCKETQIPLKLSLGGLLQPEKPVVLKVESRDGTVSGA

| SMILES | inhibition at 2 µM (CYP3A4) [%] | inhibition at 2 µM (CYP2D6 [1]) [%] | Ki (Cytochrome P450 2D6) [nM] | IC50 [2] [nM] | Inhibition (Rattus norvegicus [3]) [%] | Inhibition (Rattus norvegicus [4]) [%] | IC50 [5] [nM] | inhibition at 2 µM (CYP2D6 [6]) [%] |
| --- | --- | --- | --- | --- | --- | --- | --- | --- |
| COc1ccc(CNC(=O)C(c2ccc(C)cc2)N2CCN(CC(O)COc3c(C)cccc3C)CC2)cc1 (stereo unspecified) | 74 | 14 | 3000 | 351 | – | – | – | – |
| COc1ccc(CNC(=O)C(c2ccc(F)cc2)N2CCN(CC(O)COc3ccc(OC)cc3)CC2)cc1 (stereo unspecified) | 81 | 10 | 7000 | 214 | – | – | – | – |
| COc1ccc(CNC(=O)C(c2ccc(C(F)(F)F)cc2)N2CCN(CC(O)COc3ccc(OC)cc3)CC2)cc1 (stereo unspecified) | 88 | 0 | 4000 | 359 | – | – | – | – |
| OC(COc1ccccc1)CN1CCN(C(c2ccccc2)c2ccc(C(F)(F)F)cc2)CC1 (stereo unspecified) | – | 87 | 600 | 893 | 57 | 61 | – | – |
| COc1ccc(OCC(O)CN2CCN(C(CNC(=O)c3ccccc3OC)c3ccccc3)CC2)cc1 (stereo unspecified) | 93 | 9 | 8000 | 721 | – | – | – | – |
| Cc1cccc(C)c1OCC(O)CN1CCN(C(C(=O)NCc2ccccc2)c2ccc(F)cc2)CC1 (stereo unspecified) | 38 | 20 | 2000 | 149 | – | – | – | – |
| Cc1ccc(C(C(=O)NCc2ccccc2)N2CCN(CC(O)COc3c(C)cccc3C)CC2)cc1 (stereo unspecified) | 44 | 26 | 2000 | 325 | – | – | – | – |
| COc1ccc(OCC(O)CN2CCN(C(CNC(=O)c3ccc(F)cc3)c3ccccc3)CC2)cc1 (stereo unspecified) | 22 | 33 | 3000 | 531 | – | – | – | – |
| COc1ccc(OCC(O)CN2CCN(C(C(=O)NCc3ccccc3)c3ccc(C(F)(F)F)cc3)CC2)cc1 (stereo unspecified) | 68 | 13 | 2000 | 429 | – | – | – | – |
| Cc1cccc(S(=O)(=O)NCC(c2ccc(C(F)(F)F)cc2)N2CCN(CC(O)COc3ccc(Br)cc3)CC2)c1 (stereo unspecified) | 76 | 27 | 10000 | – | – | – | 95 | – |
| COc1ccc(CNC(=O)C(c2ccc(C(F)(F)F)cc2)N2CCN(CC(O)COc3c(C)cccc3C)CC2)cc1 (stereo unspecified) | 62 | 8 | 2000 | 355 | – | – | – | – |
| O=S(=O)(NCC(c1ccc(C(F)(F)F)cc1)N1CCN(CC(O)COc2ccc(F)cc2)CC1)c1ccccc1Cl (stereo unspecified) | 92 | 56 | 10000 | – | – | – | 76 | – |
| COc1ccc(C(=O)NCC(c2ccccc2)N2CCN(CC(O)COc3ccc(Cl)cc3)CC2)cc1 (stereo unspecified) | 96 | 47 | 4000 | 538 | – | – | – | – |
| COc1ccc(CNC(=O)C(c2ccc(OC)cc2)N2CCN(CC(O)COc3c(C)cccc3C)CC2)cc1 (stereo unspecified) | 74 | 9 | 5000 | 571 | – | – | – | – |
| COc1ccc(OC)c(S(=O)(=O)NCC(c2ccccc2)N2CCN(CC(O)COc3ccc(Br)cc3)CC2)c1 (stereo unspecified) | 100 | 25 | 30000 | 522 | – | – | – | – |
| COc1ccc(OCC(O)CN2CCN(C(CNC(=O)c3ccc(OC)cc3)c3ccccc3)CC2)cc1 (stereo unspecified) | 95 | 12 | 8000 | 871 | – | – | – | – |
| C=CCOCC(O)CN1CCN(C(c2ccccc2)c2ccc(Cl)cc2)CC1 (stereo unspecified) | – | – | 100 | 401 | – | 20 | – | 87 |
| O=C(NCC(c1ccccc1)N1CCN(CC(O)COc2ccccc2)CC1)c1ccc(F)cc1 (stereo unspecified) | 61 | 9 | 7000 | 363 | – | – | – | – |
| COc1ccc(OCC(O)CN2CCN(C(C(=O)NCc3ccccc3)c3ccc(C)cc3)CC2)cc1 (stereo unspecified) | 65 | 10 | 4000 | 579 | – | – | – | – |
| COc1ccc(OCC(O)CN2CCN(C(C(=O)NCc3ccccc3)c3ccc(F)cc3)CC2)cc1 (stereo unspecified) | 49 | 0 | 5000 | 254 | – | – | – | – |
